Laboratory results from the CheMixHub viscosity set.
± gives the uncertainty stated by the source.

Assay: xn = mol fraction of the nth substance listed

Cc1ccccc1[N+](=O)[O-] + Cc1cccc(C)c1
308.15 K, 101.33 kPa
Conditions | viscosity [mPa·s]
x2 = 0.1014 | 1.358 ± 0.008
x2 = 0.2022 | 1.154 ± 0.007
x2 = 0.3044 | 1.027 ± 0.007
x2 = 0.4036 | 0.938 ± 0.006
x2 = 0.499 | 0.87 ± 0.006
x2 = 0.6052 | 0.792 ± 0.005
x2 = 0.6913 | 0.735 ± 0.005
x2 = 0.8068 | 0.654 ± 0.004
x2 = 0.8993 | 0.596 ± 0.004

Cc1cccc([N+](=O)[O-])c1 + c1ccccc1
303.15 K, 101.33 kPa
Conditions | viscosity [mPa·s]
x1 = 0.2 | 0.7 ± 0.015
x1 = 0.395 | 0.85 ± 0.014
x1 = 0.599 | 1.09 ± 0.015
x1 = 0.804 | 1.44 ± 0.016

C1=CCCCC1 + ClC(Cl)Cl
303.15 K, 101 kPa
Conditions | viscosity [mPa·s]
x1 = 0.1005 | 0.62 ± 0.008
x1 = 0.2478 | 0.604 ± 0.008
x1 = 0.3282 | 0.595 ± 0.008
x1 = 0.4351 | 0.585 ± 0.008
x1 = 0.4917 | 0.581 ± 0.008
x1 = 0.629 | 0.575 ± 0.007
x1 = 0.7454 | 0.573 ± 0.007
x1 = 0.8452 | 0.571 ± 0.007

CC1CCCCC1 + C1CCOC1
303.15 K, 101.33 kPa
Conditions | viscosity [mPa·s]
x2 = 0.111 | 0.604 ± 0.005
x2 = 0.2072 | 0.576 ± 0.005
x2 = 0.3062 | 0.548 ± 0.005
x2 = 0.404 | 0.525 ± 0.005
x2 = 0.4829 | 0.507 ± 0.005
x2 = 0.504 | 0.503 ± 0.005
x2 = 0.6018 | 0.487 ± 0.005
x2 = 0.7067 | 0.47 ± 0.004
x2 = 0.9006 | 0.447 ± 0.004

CCOC(=O)c1ccccc1 + Cc1ccccc1Cl
viscosity [mPa·s], 101 kPa
Conditions | 303.15 K | 313.15 K
x1 = 0.0262 | 0.899 ± 0.015 | 0.753 ± 0.013
x1 = 0.0785 | 0.926 ± 0.015 | 0.772 ± 0.013
x1 = 0.1304 | 0.952 ± 0.015 | 0.793 ± 0.013
x1 = 0.2081 | 0.996 ± 0.016 | 0.826 ± 0.014
x1 = 0.2594 | 1.022 ± 0.016 | 0.846 ± 0.014
x1 = 0.3343 | 1.067 ± 0.017 | 0.881 ± 0.014
x1 = 0.3851 | 1.099 ± 0.017 | 0.906 ± 0.015
x1 = 0.4613 | 1.149 ± 0.018 | 0.945 ± 0.015
x1 = 0.5356 | 1.208 ± 0.019 | 0.99 ± 0.016
x1 = 0.6108 | 1.274 ± 0.02 | 1.041 ± 0.017
x1 = 0.709 | 1.375 ± 0.021 | 1.12 ± 0.018
x1 = 0.8085 | 1.497 ± 0.023 | 1.215 ± 0.019
x1 = 0.9045 | 1.635 ± 0.025 | 1.323 ± 0.021

CC(C)O + CCCCCCC
viscosity [mPa·s], 101 kPa
Conditions | x2 = 0.1003 | x2 = 0.2009 | x2 = 0.3009 | x2 = 0.398 | x2 = 0.5002 | x2 = 0.5961 | x2 = 0.6981 | x2 = 0.8014 | x2 = 0.9084
293.15 K | 1.596 ± 0.019 | 1.178 ± 0.014 | 0.9242 ± 0.011 | 0.7437 ± 0.009 | 0.6223 ± 0.0076 | 0.5479 ± 0.0068 | 0.493 ± 0.0062 | 0.4607 ± 0.0059 | 0.436 ± 0.0056
298.15 K | 1.413 ± 0.017 | 1.044 ± 0.013 | 0.8165 ± 0.0098 | 0.6851 ± 0.0083 | 0.5866 ± 0.0072 | 0.5025 ± 0.0063 | 0.4623 ± 0.0058 | 0.4268 ± 0.0055 | 0.4025 ± 0.0052
303.15 K | 1.23 ± 0.015 | 0.927 ± 0.011 | 0.7388 ± 0.0089 | 0.62 ± 0.0076 | 0.5333 ± 0.0066 | 0.4679 ± 0.0058 | 0.4351 ± 0.0055 | 0.4137 ± 0.0053 | 0.3897 ± 0.0051
308.15 K | 1.091 ± 0.013 | 0.8401 ± 0.01 | 0.6728 ± 0.0081 | 0.577 ± 0.007 | 0.4915 ± 0.0061 | 0.4441 ± 0.0056 | 0.4083 ± 0.0052 | 0.3805 ± 0.0049 | 0.3637 ± 0.0048

CC(C)O + CO
298.15 K, 101.33 kPa
Conditions | viscosity [mPa·s]
x2 = 0.0893 | 1.891 ± 0.034
x2 = 0.225 | 1.625 ± 0.029
x2 = 0.2835 | 1.518 ± 0.028
x2 = 0.3984 | 1.332 ± 0.024
x2 = 0.5178 | 1.16 ± 0.021
x2 = 0.6024 | 1.051 ± 0.019
x2 = 0.6852 | 0.945 ± 0.018
x2 = 0.8272 | 0.772 ± 0.015
x2 = 0.9058 | 0.675 ± 0.013

CCCCCl + CC(C)CO
viscosity [mPa·s], 101 kPa
Conditions | x1 = 0.0951 | x1 = 0.2057 | x1 = 0.3038 | x1 = 0.4102 | x1 = 0.5035 | x1 = 0.6121 | x1 = 0.7033 | x1 = 0.8022 | x1 = 0.9043
298.15 K | 2.41 ± 0.022 | 1.677 ± 0.015 | 1.261 ± 0.011 | 0.9677 ± 0.0088 | 0.7931 ± 0.0072 | 0.6506 ± 0.006 | – | 0.5 ± 0.1 | 0.4513 ± 0.0043
313.15 K | 1.576 ± 0.017 | 1.152 ± 0.011 | 0.9054 ± 0.0087 | 0.7239 ± 0.0069 | 0.6137 ± 0.0059 | 0.5199 ± 0.005 | 0.4687 ± 0.0045 | 0.4153 ± 0.0041 | 0.3832 ± 0.0038

C1=CCCCC1 + c1ccccc1
303.15 K, 101 kPa
Conditions | viscosity [mPa·s]
x1 = 0.1198 | 0.57 ± 0.007
x1 = 0.2756 | 0.568 ± 0.007
x1 = 0.3442 | 0.569 ± 0.007
x1 = 0.4509 | 0.566 ± 0.007
x1 = 0.4904 | 0.566 ± 0.007
x1 = 0.6697 | 0.568 ± 0.007
x1 = 0.7561 | 0.568 ± 0.007
x1 = 0.8665 | 0.571 ± 0.007

N#CCc1ccccc1 + ClC(Cl)C(Cl)Cl
Conditions | viscosity [mPa·s]
313.15 K, 101 kPa, x1 = 0.7131 | 1.645 ± 0.021

CC(C)O + CCO
101 kPa
Conditions | viscosity [mPa·s]
298.15 K, x2 = 0.214 | 1.796 ± 0.023
298.15 K, x2 = 0.393 | 1.607 ± 0.025
298.15 K, x2 = 0.565 | 1.445 ± 0.027
298.15 K, x2 = 0.725 | 1.299 ± 0.028
298.15 K, x2 = 0.869 | 1.182 ± 0.028
308.15 K, x2 = 0.5 | 1.186 ± 0.025
313.15 K, x2 = 0.5 | 1.066 ± 0.023
318.15 K, x2 = 0.5 | 0.9542 ± 0.02

CCCCCl + CCC(C)O
viscosity [mPa·s], 101 kPa
Conditions | x1 = 0.0997 | x1 = 0.1976 | x1 = 0.3052 | x1 = 0.4049 | x1 = 0.497 | x1 = 0.606 | x1 = 0.7022 | x1 = 0.8053 | x1 = 0.9038
298.15 K | 1.98 ± 0.02 | 1.379 ± 0.014 | 1.015 ± 0.01 | 0.8086 ± 0.0078 | 0.6823 ± 0.0065 | 0.5809 ± 0.0055 | 0.5176 ± 0.005 | 0.469 ± 0.005 | 0.4366 ± 0.0042
313.15 K | 1.234 ± 0.015 | 0.9264 ± 0.01 | 0.7261 ± 0.0076 | 0.6063 ± 0.0062 | 0.5279 ± 0.0053 | 0.4628 ± 0.0047 | 0.4198 ± 0.0042 | 0.3877 ± 0.0039 | 0.3663 ± 0.0037
